Source: patent US20250049831A1, “ANTIVIRAL USE OF BISE[…], AND BISEPOXYLIGNAN COMPOSITION AND PREPARATION OF BISE[…]” (priority 2021, published 2025)

What follows are molecules tested on COVID-19 virus (assay: In-vitro antiviral CPE test in Vero E6 cells, COVID-19 virus).
Assay type: cell-based

SMILES | COVID-19 virus SI
COc1cc(O)cc(C2OCC3C(c4ccc(OC5OC(CO)C(O)C(O)C5O)c(OC)c4)OCC23)c1 (stereo not shown) [compound 1] | 31.61
COc1ccc([C@H]2OC[C@H]3[C@@H]2CO[C@H]3c2ccc(O[C@@H]3O[C@H](CO)[C@@H](O)[C@H](O)[C@H]3O)c(OC)c2)cc1OC [compound 2] | 30.50
COc1ccc(C2OCC3C(c4ccc(OC)c(OC)c4)OCC23)cc1O (stereo not shown) [compound 3] | 5.33
COc1ccc(C2OCC3C(c4ccc(OC(=O)C(C)c5ccc(CC(C)C)cc5)c(OC)c4)OCC23)cc1OC (stereo not shown) [compound 6] | 4.72
